{
  "source": "ChEMBL document CHEMBL4725274",
  "about": "(Bioorg Med Chem Lett, 2020)",
  "key": {"HEK293 [1]": {"system": "HEK293", "assay": "Activation of luciferase (unknown origin) expressed in HEK293 cells in presence of pGL3 plasmid incubated for 30 mins by luciferase reporter gene assay", "type": "cell-based"}, "[2]": {"assay": "Drug uptake in HEK293 cells at 1 uM incubated for 1 hr by flow cytometry analysis", "type": "ADME, cell-based", "settings": "human, hek293, 1 h"}, "[3]": {"biological_target": "Substance-P receptor (Homo sapiens) (UniProt P25103)", "sequence (P25103 whole entry)": "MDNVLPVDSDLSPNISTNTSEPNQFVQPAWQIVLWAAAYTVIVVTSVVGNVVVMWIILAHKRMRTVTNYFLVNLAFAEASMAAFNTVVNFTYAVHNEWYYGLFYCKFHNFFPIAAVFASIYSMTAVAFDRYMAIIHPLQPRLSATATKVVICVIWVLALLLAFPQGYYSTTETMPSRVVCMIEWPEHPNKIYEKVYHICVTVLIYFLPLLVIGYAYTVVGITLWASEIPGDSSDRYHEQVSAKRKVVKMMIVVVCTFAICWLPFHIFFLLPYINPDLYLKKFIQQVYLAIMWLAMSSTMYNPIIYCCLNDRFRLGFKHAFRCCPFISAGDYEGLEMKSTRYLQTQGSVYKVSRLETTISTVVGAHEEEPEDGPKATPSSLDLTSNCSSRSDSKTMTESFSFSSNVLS", "assay": "Binding affinity to NK1R (unknown origin) expressed in HEK293 cells assessed as reduction in cell viability in presence of p53 plasmid at N/P ratio of 1 incubated for 96 hrs by MTT assay relative to control", "type": "cell-based"}, "[4]": {"assay": "Drug uptake in HEK293 cells at 1 uM incubated for 1 hr by confocal microscopy analysis", "type": "ADME, cell-based", "settings": "human, hek293, 1 h"}, "[5]": {"biological_target": "Substance-P receptor (Homo sapiens) (UniProt P25103)", "assay": "Binding affinity to NK1R (unknown origin) expressed in HEK293 cells assessed as reduction in cell viability in presence of p53 plasmid at N/P ratio of 3 incubated for 96 hrs by MTT assay relative to control", "type": "cell-based"}, "HEK293 [6]": {"system": "HEK293", "assay": "Cytotoxicity against HEK293 cells assessed as reduction in cell viability in presence of p53 plasmid at N/P ratio of 0.5 to 3 incubated for 96 hrs by MTT assay", "type": "cell-based", "settings": "human, hek293, 96 h"}, "HEK293 [7]": {"system": "HEK293", "assay": "Cytotoxicity against HEK293 cells assessed as reduction in cell viability incubated for 96 hrs by MTT assay", "type": "cell-based", "settings": "Homo sapiens, HEK293, 96 h"}, "[8]": {"biological_target": "Substance-P receptor (Homo sapiens) (UniProt P25103)", "assay": "Binding affinity to NK1R (unknown origin) expressed in HEK293 cells assessed as reduction in cell viability in presence of p53 plasmid at N/P ratio of 0.5 to 3 incubated for 96 hrs by MTT assay", "type": "cell-based"}, "[9]": {"biological_target": "Substance-P receptor (Homo sapiens) (UniProt P25103)", "assay": "Binding affinity to NK1R (unknown origin) expressed in HEK293 cells assessed as reduction in cell viability in presence of p53 plasmid at N/P ratio of 2 incubated for 96 hrs by MTT assay relative to control", "type": "cell-based"}},
  "note": "Calls of active or inactive are those of the source. The rule behind the calls is not given here. Where a SMILES comes first, the peptide text is derived from it. The star is where a group is joined. Stearoyl = CCCCCCCCCCCCCCCCCC(=O)*",
  "data": [
    {"smiles": "CCCCCCCCCCCCCCCCCC(=O)N[C@@H](CCCCN)C(=O)N[C@@H](Cc1c[nH]c2ccccc12)C(=O)N[C@@H](CCCCN)C(=O)N[C@@H](CC(C)C)C(=O)N[C@@H](CCC(=O)O)C(=O)N[C@@H](CCCCN)C(=O)N[C@@H](CCCCN)C(=O)N[C@H](C(=O)NCC(=O)N[C@@H](C)C(=O)N[C@H](C(=O)N[C@@H](CC(C)C)C(=O)N[C@H](C(=O)N[C@@H](CS)C(=O)N[C@H](C(=O)N[C@@H](CC(C)C)C(=O)N[C@@H](CCCNC(=N)N)C(=O)N1CCC[C@H]1C(=O)N[C@@H](CCCCN)C(=O)N1CCC[C@H]1C(=O)N[C@@H](CCC(N)=O)C(=O)N[C@@H](CCC(N)=O)C(=O)N[C@@H](Cc1ccccc1)C(=O)N[C@@H](Cc1ccccc1)C(=O)NCC(=O)N[C@@H](CC(C)C)C(=O)N[C@@H](CCSC)C(N)=O)C(C)C)[C@@H](C)CC)C(C)C)[C@@H](C)CC", "note": "(Stearoyl-KWKLEKKIGAVLICVLRPKPQQFFGLM-NH2)", "values": [
      {"measurement": "Activity", "setting": "HEK293 [1]", "result": "inactive"},
      {"measurement": "Drug uptake", "setting": "[2]", "result": "Active"},
      {"measurement": "Activity", "setting": "[3]", "result": 51.6, "unit": "%"},
      {"measurement": "Drug uptake", "setting": "[4]", "result": "Active"},
      {"measurement": "Activity", "setting": "[5]", "result": 70.2, "unit": "%"},
      {"measurement": "Activity", "setting": "HEK293 [6]", "result": "Active"},
      {"measurement": "EC50", "setting": "HEK293 [7]", "result": 7.5, "unit": "µM"},
      {"measurement": "Activity", "setting": "[8]", "result": "Active"},
      {"measurement": "Activity", "setting": "[9]", "result": 66.7, "unit": "%"}
    ]}
  ]
}
